What was measured:
[1] = target: T1, (Homo sapiens, UniProt P30926+P43681); assay: whole-cell patch-clamp recording of nicotinic responses, α4α4 nAChR subtype; assay type: cell-based; details: THB 0.1 mM; nicotine 1.0 μM; FIG. 6B (2)
T1 construct: expressed in transfected cells; host or cells: SH-EP1 human epithelial cell line
Description: (§1) In FIGS. 6-9, whole-cell patch-clamp recording techniques in voltage-clamp mode were used to detect changes in current. Conventional whole-cell current recording coupled with techniques for fast application and removal of agonist (9 channel multi-barrel pipette), were applied in this study. Briefly, cells plated on poly-lysine-coated 35-mm culture dishes were placed on the stage of an inverted microscope (Olympus iX7, Lake Success, N.Y.) and continuously superfused with standard external solution (2 ml/min). Glass microelectrodes (3-5 MΩ resistance between pipette and extracellular solutions) were used to form tight seals (>1 GΩ) on the cell surface until suction was applied to convert to conventional whole-cell recording.
(§2) Both pipette and whole current capacitance were minimized and the series resistance was routinely compensated to 80%. The access resistance before series resistance compensation was between 10-20 MΩ. Data acquisition and analyses were done using Pclamp8 (Axon Instruments), and results were plotted using Origin 5.0 (Microcal, North Hampton, Mass.).
(§3) Data usually were fit over the 10-90% period from inward current peak until agonist exposure was terminated (5-10 sec). The experimental data are presented as means±standard errors, and comparisons of different conditions were analyzed for statistical significance using the Student's t-tests. […]

α7-nAChRs = target: T2, α7-nAChRs (Homo sapiens, UniProt P36544); assay: whole-cell patch-clamp recording of nicotinic responses, α7 nAChR subtype; assay type: cell-based; details: THB 0.1 mM; nicotine 1.0 μM; FIG. 6B (3)
T2 construct: expressed in transfected cells; host or cells: SH-EP1 human epithelial cell line (stated generally, not specifically for α7)
Description: as §1, §2, §3

α4β2-nAChR = target: T3, α4β2-nAChR (Homo sapiens, UniProt P17787+P43681); assay: whole-cell patch-clamp recording of nicotine-induced currents, α4β2-nAChR expressed in SH-EP1 cells; assay type: cell-based; details: for effect on α4β2-nAChR mediated currents (peak current response, steady-state component): 0.1 mM of each Magnoliidae compound, FIG. 6A
T3 construct: expressed in transfected cells; host or cells: SH-EP1 human epithelial cell line (nAChR-null)
Description: as §1, §2
Data usually were fit over the 10-90% period from inward current peak until agonist exposure was terminated (5-10 sec). The experimental data are presented as means±standard errors, and comparisons of different conditions were analyzed for statistical significance using the Student's t-tests. All experiments were performed at room temperature (22±1° C.). A pipette electrode solution comprising TrisPO4dibasic 110 milli-Molar (mM), Trisbase 28 mM, Ethylenediaminetetraacetate (EDTA) 11 mM, Magnesium Chloride (MgCl2) 2 mM, Calcium Chloride (CaCl2) 0.5 mM, and Sodium-Adenosine Triphosphate (Na-ATP) 4 mM, resulting in a pH of 7.3, was used.

[2] = system: D1-type and D2-type DA receptor; details: cited from earlier work
D2 receptor = target: T4, D2 receptor (Rattus norvegicus, UniProt P61169); details: cited from earlier work
T4 construct: host or cells: normal rats, in vivo

D1 receptors = target: T5, D1 receptors (Rattus norvegicus, UniProt P18901); details: rats with unilateral nigral lesion (DA receptor super sensitivity in striatum); cited from earlier work
T5 construct: host or cells: rats with unilateral nigral lesion, in vivo (striatum)
T5 sequence (P18901 whole entry): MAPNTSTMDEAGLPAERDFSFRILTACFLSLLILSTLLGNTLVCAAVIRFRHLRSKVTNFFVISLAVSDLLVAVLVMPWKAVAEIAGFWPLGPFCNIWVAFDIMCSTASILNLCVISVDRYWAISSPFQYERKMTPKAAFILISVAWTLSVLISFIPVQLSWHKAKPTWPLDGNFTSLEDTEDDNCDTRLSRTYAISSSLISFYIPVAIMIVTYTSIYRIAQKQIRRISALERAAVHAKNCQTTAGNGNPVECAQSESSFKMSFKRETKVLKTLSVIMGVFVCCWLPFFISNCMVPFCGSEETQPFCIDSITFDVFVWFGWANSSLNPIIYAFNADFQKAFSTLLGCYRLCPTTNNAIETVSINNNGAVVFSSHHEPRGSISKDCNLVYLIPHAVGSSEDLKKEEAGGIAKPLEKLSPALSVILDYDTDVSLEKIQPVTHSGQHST

T3 sequence (P43681 29-627 limits assumed): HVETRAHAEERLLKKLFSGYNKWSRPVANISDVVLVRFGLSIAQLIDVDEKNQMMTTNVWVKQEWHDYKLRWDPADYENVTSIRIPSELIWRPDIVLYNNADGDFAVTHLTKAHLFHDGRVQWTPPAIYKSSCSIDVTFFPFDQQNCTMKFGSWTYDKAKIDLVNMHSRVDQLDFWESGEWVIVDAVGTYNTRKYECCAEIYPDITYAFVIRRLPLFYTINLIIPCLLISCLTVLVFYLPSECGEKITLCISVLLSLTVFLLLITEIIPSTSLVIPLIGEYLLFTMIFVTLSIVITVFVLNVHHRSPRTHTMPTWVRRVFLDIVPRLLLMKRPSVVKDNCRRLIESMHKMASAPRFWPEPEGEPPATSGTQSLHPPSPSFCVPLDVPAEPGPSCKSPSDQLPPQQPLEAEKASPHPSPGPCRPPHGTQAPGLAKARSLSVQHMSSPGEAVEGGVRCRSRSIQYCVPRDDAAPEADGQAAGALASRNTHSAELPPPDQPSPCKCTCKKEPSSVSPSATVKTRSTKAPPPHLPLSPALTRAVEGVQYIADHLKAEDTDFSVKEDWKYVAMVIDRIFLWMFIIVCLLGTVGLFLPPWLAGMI
T3 sequence (P17787 26-502): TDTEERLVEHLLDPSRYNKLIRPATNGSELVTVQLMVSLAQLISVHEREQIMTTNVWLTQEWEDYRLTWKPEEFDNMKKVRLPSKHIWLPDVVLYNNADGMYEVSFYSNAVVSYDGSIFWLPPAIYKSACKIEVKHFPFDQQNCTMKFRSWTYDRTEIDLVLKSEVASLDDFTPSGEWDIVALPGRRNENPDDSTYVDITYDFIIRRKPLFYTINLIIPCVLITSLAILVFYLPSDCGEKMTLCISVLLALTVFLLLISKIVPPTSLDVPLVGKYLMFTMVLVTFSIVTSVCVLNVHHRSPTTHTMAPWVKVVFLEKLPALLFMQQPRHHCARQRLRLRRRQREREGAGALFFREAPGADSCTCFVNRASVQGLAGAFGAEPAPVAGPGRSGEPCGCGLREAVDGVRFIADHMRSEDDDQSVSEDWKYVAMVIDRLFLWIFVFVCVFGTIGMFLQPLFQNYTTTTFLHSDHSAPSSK
T1 sequence (P43681 27-627): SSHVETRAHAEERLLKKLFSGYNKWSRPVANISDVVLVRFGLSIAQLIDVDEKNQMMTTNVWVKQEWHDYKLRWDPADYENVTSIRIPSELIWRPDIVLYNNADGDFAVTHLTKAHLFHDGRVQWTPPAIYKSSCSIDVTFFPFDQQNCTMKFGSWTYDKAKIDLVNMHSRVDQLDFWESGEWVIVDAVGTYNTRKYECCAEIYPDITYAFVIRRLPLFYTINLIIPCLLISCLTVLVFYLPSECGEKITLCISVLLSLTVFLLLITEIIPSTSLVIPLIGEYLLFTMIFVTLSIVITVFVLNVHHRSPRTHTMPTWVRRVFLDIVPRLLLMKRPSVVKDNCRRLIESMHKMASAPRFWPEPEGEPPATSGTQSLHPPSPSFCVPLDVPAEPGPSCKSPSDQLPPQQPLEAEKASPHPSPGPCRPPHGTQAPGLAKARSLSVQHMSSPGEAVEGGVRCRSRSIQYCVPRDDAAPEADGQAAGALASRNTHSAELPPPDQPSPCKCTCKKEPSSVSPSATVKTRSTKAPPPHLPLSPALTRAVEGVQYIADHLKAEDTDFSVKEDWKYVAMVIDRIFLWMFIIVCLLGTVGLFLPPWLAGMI
T1 sequence (P30926 22-498): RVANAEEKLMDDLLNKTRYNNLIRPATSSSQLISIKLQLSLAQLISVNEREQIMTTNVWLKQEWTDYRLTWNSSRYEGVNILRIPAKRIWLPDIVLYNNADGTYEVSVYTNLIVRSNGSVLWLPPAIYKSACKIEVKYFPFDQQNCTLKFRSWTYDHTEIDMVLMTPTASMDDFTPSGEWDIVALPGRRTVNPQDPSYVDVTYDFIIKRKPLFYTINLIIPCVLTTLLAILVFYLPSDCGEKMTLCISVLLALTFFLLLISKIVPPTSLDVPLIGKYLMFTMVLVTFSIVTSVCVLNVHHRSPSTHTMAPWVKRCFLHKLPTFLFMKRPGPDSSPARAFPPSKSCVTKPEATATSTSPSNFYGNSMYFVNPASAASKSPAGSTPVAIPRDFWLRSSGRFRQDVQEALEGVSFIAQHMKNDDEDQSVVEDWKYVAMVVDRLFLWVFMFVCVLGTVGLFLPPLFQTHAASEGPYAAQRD
T2 sequence (P36544 23-502): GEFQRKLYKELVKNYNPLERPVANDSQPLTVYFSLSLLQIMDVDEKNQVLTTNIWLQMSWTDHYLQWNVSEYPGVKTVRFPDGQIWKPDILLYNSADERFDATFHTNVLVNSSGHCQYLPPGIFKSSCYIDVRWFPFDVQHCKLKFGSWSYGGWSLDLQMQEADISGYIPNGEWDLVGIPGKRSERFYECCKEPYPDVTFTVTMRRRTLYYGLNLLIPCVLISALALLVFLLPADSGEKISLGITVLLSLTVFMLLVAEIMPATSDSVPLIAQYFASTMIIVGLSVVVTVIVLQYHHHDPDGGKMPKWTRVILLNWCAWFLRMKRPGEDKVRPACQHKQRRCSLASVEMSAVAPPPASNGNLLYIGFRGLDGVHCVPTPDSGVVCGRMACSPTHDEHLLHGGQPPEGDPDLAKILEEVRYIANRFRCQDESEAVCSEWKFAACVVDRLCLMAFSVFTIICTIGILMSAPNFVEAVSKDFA
T4 sequence (P61169 whole entry): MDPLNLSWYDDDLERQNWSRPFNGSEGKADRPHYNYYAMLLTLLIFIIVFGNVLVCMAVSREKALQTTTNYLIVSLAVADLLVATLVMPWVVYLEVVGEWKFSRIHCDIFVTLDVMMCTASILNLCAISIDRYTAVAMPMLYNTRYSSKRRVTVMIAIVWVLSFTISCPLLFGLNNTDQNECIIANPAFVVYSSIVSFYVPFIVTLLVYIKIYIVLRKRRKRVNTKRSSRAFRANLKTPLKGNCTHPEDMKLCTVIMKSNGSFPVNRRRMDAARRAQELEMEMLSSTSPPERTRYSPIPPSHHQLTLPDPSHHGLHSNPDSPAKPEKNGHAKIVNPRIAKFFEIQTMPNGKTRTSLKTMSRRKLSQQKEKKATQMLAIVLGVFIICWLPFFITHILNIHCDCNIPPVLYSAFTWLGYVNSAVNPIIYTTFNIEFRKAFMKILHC

## COc1ccc2c(c1OC)CN1CCc3cc4c(cc3C1C2)OCO4 (stereo not drawn) [THB, Tetrahydroberberine]
[1]
  effect on nicotinic response mediated by α4α4 subtype: inhibition of each nAChR subtype function
α7-nAChRs
  effect on nicotinic response mediated by α7 subtype: inhibitory effect occurs more predominantly in α7-nAChRs
α4β2-nAChR
  effect on α4β2-nAChR mediated currents (peak current response, steady-state component): inhibition of nAChR function
α4β2-nAChR; THB 30 μM, holding potentials −40 mV and −80 mV, FIG. 9A-9B
  acute desensitization of nicotine-induced currents: accelerates acute desensitization
α4β2-nAChR; THB 0.1 mM, nicotine 1.0 μM, FIG. 6B (1)
  effect on nicotinic response mediated by α4β2 subtype: inhibition of each nAChR subtype function
α4β2-nAChR; THB 1.0, 10, 100 μM, nicotine 1.0 μM, FIG. 7A-7C
  effect on peak (Ip) and steady-state (Is) components of nicotinic responses at different THB concentrations: concentration-dependent inhibition
α4β2-nAChR; depending on holding potential VH
  voltage dependence of suppression of nicotinic response: suppressed nicotinic response depending on VH
[2]
  effect on D1-type and D2-type DA receptor binding: equipotent effect

## COc1cc2c(cc1O)[C@@H]1Cc3ccc(O)c(OC)c3CN1CC2 [l-SPD, l-Stepholidine]
D2 receptor
  DA receptor characteristics in normal rats: characteristics of D2 receptor antagonist
α4β2-nAChR
  effect on α4β2-nAChR mediated currents (peak current response, steady-state component): inhibition of nAChR function
D1 receptors
  DA receptor characteristics in rats with unilateral nigral lesion: acts on D1 receptors as an agonist

## COc1cc2c(cc1OC)[C@@H]1Cc3ccc(OC)c(OC)c3CN1CC2 [l-THP, l-Tetrahydropalmatine]
α4β2-nAChR
  effect on α4β2-nAChR mediated currents (peak current response, steady-state component): inhibition of nAChR function

Source: US8507017B2, “Method for decreasing nicotine and other substance use in humans” (Arizona Health Consulting Group, LLC, priority 2003, dated 2013)
